Measurements published in US20240400712A1, “A PLATFORM TO OBTAIN MONOCLONAL ANTIBODIES DIRECTED AGAINST PROCESSED TUMOR-SPECIFIC ANTIGENS” (MEDITERRANEA THERANOSTIC SRL, priority 2020, published 2024).

Assays:
ADAM10 = molecular target: T1, ADAM10 (Mus musculus, UniProt O35598); experiment: Western blot of Trop-2 processing after ADAM10 inhibition or silencing in MTE 4-14/Trop-2 transfectants; assay type: cell-based, murine; conditions: for concentration found effective (up to): inhibition of Trop-2 cleavage in cells
T1 construct: endogenous in cells; host or cells: MTE 4-14 cells (transformed thymus cells) transfected with Trop-2
T1 sequence (O35598 215-749): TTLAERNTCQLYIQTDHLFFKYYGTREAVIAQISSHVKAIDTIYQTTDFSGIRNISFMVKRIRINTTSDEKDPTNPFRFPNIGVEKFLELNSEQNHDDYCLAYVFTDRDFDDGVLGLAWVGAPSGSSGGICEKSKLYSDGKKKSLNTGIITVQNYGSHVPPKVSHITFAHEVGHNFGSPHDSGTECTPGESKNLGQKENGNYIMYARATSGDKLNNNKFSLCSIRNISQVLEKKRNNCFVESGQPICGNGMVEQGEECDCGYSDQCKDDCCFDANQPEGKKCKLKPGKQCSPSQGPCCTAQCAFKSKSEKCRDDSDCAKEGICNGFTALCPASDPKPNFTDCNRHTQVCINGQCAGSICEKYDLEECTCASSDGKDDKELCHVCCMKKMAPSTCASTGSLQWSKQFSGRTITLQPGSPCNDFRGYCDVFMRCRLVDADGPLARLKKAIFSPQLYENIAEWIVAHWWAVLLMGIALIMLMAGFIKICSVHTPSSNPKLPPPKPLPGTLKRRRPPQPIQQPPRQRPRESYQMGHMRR
Description: ADAM 10 activity was inhibited in the MTE 4-14/Trop-2 transfectants by treatment with chemical inhibitors or mRNA silencing, and the effect on Trop-2 processing and on Trop-2-dependent cell growth was evaluated.
A. WB analysis following treatment with the broad-spectrum metalloprotease inhibitor GM6001 or with the specific ADAM10 inhibitor G1254023X (Ludwig, Hundhausen et al. 2005) or ADAM10 siRNA silencing, as indicated. […] T2-p: processed Trop-2; na: native form; pr processed form.
Western blotting was performed as described (El Sewedy, Fomaro et al. 1998). Tumors from experimental animals were rapidly frozen upon surgical removal and stored at −80° C. Frozen samples were quickly thawed and homogenized with a Dounce homogenizer. Cleared homogenates of tumors and cultured cell lysates were analyzed by SDS-PAGE and transferred to nitrocellulose filters. Filters were hybridized with anti-human Trop-2 (affinity-purified polyclonal rabbit antiserum) or anti-ADAM10 antibodies.
Cells were treated with ADAM10 inhibitors for 24 hours at the minimum concentration found to be effective in inhibiting Trop-2 cleavage, then assayed as indicated. The GM6001 metalloprotease family inhibitor (Calbiochem) was dissolved in DMSO and used at 6.5-13 μM for 24 hours; up to 50 μM GM6001 were found effective. The G1254023X selective ADAM10 inhibitor, dissolved in DMSO, was kindly provided by Dr. A. Ludwig. Cells received two doses (10 μM) every 24 hours for 48 hours; up to 20 μM G1254023X were found effective. Control cells received vehicle alone.
(§1) Complementary strategies were utilized for siRNA design. Briefly, Tuschl' criteria were applied, i.e. position in the mRNA, GC content, base composition and flanking sequences (Elbashir, Harborth et al. 2001). Invitrogen (maidesigner.invitrogen.com/maiexpress/) provides a proprietary algorithm that performs a statistical analysis of the target sequence, based on sequence composition, nucleotide content and thermodynamic properties, and compares candidates with validated siRNA sequences. The Whitehead Institute web site (jura.wi.mit.edu/bioc/siRNAext/) combines Tuschl' criteria with predictions of binding energies for both sense and antisense siRNAs and with BLAST filtering of cross-hybridizing sequences (Semizarov, Frost et al. 2003). […] Annealed oligos were subcloned into the pSUPER vector, kindly provided by Dr. R. Bemard (Brummelkamp, Bemards et al. 2002), under the control of the RNA polymerase Ill H1 gene promoter. siRNA expression constructs were transiently transfected MTE 4-14 transfectants, and cell growth was measured. siRNA-targeted transcript levels were quantified by real-time PCR. […]

[1] = tested on: metastatic triple-negative breast cancer (TNBC); conditions: cited from earlier work
MTE 4-14 cells = experiment: In vitro cell growth of MTE 4-14 transfectants after siRNA-mediated inhibition; assay type: cell-based, murine
Description: C. In vitro growth curves of MTE 4-14 cells transfected with the empty vector, wtTrop-2 or R87A-T88A Trop-2 upon ADAM10 (upper graphs, black,), MMP9 (lower graphs, black,) or control (human CD133, gray), siRNA-mediated inhibition. Bars: SEM. The p value for the only significant difference (ANOVA analysis) is indicated. Stars indicate post-hoc Bonferroni's t test p values (*≤0.05, ***≤0.001).
Cell transfectants were seeded at 1.5-3.0×10^3 cells/well in 96-well plates (five replica wells per data point). Cell numbers were quantified by staining with crystal violet (Orsulic, Li et al. 2002).
Cell numbers were normalized against a standard reference curve of two-fold serially diluted cell samples.
as §1

## CNC(=O)[C@@H](NC(=O)[C@H](CCCc1ccccc1)[C@H](C)N(O)C=O)C(C)(C)C [G1254023X]
ADAM10; concentration used on cells, GM6001 for 24 hours, G1254023X two doses every 24 hours for 48 hours
  minimum concentration found to be effective in inhibiting Trop-2 cleavage: 10 µM
ADAM10
  concentration found effective (up to): up to 20 μM

## Sacituzumab govitecan-hziy
[1]
  efficacy in patients: effective in patients with metastatic triple-negative breast cancer (TNBC)

## CNC(=O)[C@H](Cc1c[nH]c2ccccc12)NC(=O)[C@@H](CC(=O)NO)CC(C)C [GM6001]
ADAM10
  concentration found effective (up to): up to 50 μM

B1: ADAM10 siRNA: siRNA targeting murine ADAM10 (NM_007399.3, nt 292-309), SEQ ID NO: 57-58, in pSUPER vector (nucleic acid, listed as Mus musculus)
sense: GATCCCCAGACATTATGAAGGATTATTTCAAGAGAATAATCCTTCATAATGTCTTTTTTGGAAA
antisense: AGCTTTTCCAAAAAAGACATTATGAAGGATTATTCTCTTGAAATAATCCTTCATAATGTCTGGG
MTE 4-14 cells; MTE 4-14 cells transfected with R87A-T88A Trop-2 or empty vector
  effect on growth of R87A-T88A or empty vector transfectants: no effect
MTE 4-14 cells; MTE 4-14 cells transfected with wtTrop-2, in vitro proliferation
  effect on Trop-2 dependent growth in wtTrop-2 transfectants: overrides Trop-2 dependent growth stimulus
ADAM10; MTE 4-14/Trop-2 transfectants
  ADAM10 band in WB after siRNA treatment: disappearance of the corresponding band

B2: siRNAs targeting MMP9: control siRNA targeting murine MMP9 (NM_013599, nt 1780-1798), SEQ ID NO: 59-60 (nucleic acid, listed as Mus musculus)
sense: GATCCCCCCGCAGACCAAGAGGGTTTTTCAAGAGAAAACCCTCTTGGTCTGCGGTTTTTGGAAA
antisense: AGCTTTTCCAAAAACCGCAGACCAAGAGGGTTTTCTCTTGAAAAACCCTCTTGGTCTGCGGGGG
MTE 4-14 cells; control siRNA, MTE 4-14 transfectants
  effect on cell proliferation: no effect on cell proliferation
